{"source": "BindingDB's records for doi:10.1016/j.bmcl.2013.07.018", "about": "(Chungnam National University, 2013)"}
{"assay": "Inhibition of Fas-mediated cell death in oxygen and glucose deprived rat H9c2 cells treated 30 mins before oxygen and glucose deprivation measured after 6 hrs by DAPI staining", "units": {"EC50": "nM"}}
{"smiles": "COC(=O)c1sccc1NC(=O)CN(C)c1ccccc1", "EC50": 661}
{"smiles": "COC(=O)c1ccc(Cl)cc1NC(=O)CCSc1ccccn1", "EC50": 1020}
{"smiles": "COC(=O)c1c(NC(=O)CSc2ccc(Br)cc2)cnn1CCc1ccccc1", "EC50": 513}
{"smiles": "COC(=O)c1oc2ccccc2c1NC(=O)CSc1ccc(Br)cc1", "EC50": 661}
{"smiles": "COC(=O)c1cc(Br)cc(Br)c1NC(=O)CCSc1ccccn1", "EC50": 933}
{"smiles": "COC(=O)c1sccc1NC(=O)COc1ccc(Br)cc1", "EC50": 891}
{"smiles": "COC(=O)c1sccc1NC(=O)CSc1ccc(OC)cc1", "EC50": 871}
{"smiles": "COC(=O)c1c(NC(=O)CSc2ccc([N+](=O)[O-])cc2)cnn1CCc1ccccc1", "EC50": 457}
{"smiles": "COc1cc(C(=O)O)c(NC(=O)CCSc2ccccn2)c(OC)c1OC", "EC50": 2090}
{"smiles": "COC(=O)c1ccccc1NC(=O)CSc1ccccn1", "note": "[2-[[1-oxo-2-(2-pyridinylthio)ethyl]amino]benzoic acid methyl ester]", "EC50": 692}
{"smiles": "COC(=O)c1c(NC(=O)CSc2ccccc2N)cnn1CCc1ccccc1", "EC50": 513}
{"smiles": "COC(=O)c1oc2cccc(Cl)c2c1NC(=O)CSc1ccccn1", "EC50": 646}
{"smiles": "COC(=O)c1ccccc1NC(=O)CSc1ccccc1", "EC50": 562}
{"smiles": "O=C(O)c1cc(Cl)ccc1NC(=O)C(Sc1ccc(Br)cc1)c1ccccc1", "note": "(stereo not drawn)", "EC50": 2000}
{"smiles": "COC(=O)c1cc(OC)c(OC)cc1NC(=O)CCSc1ccccn1", "EC50": 1320}
{"smiles": "COC(=O)c1sc2ncccc2c1NC(=O)CCSc1ccccn1", "EC50": 490}
{"smiles": "COC(=O)c1sccc1NC(=O)CCSc1ccc(Br)cc1", "EC50": 1290}
{"smiles": "COC(=O)c1c(NC(=O)CSc2cccc(OC)c2)cnn1CCc1ccccc1", "EC50": 437}
{"smiles": "COC(=O)c1ccc(Cl)cc1NC(=O)CSc1ccc(Br)cc1", "EC50": 955}
{"smiles": "O=C(CSc1ccc(Br)cc1)Nc1ccccc1C(=O)O", "EC50": 2240}
{"smiles": "COC(=O)c1ccsc1NC(=O)CCSc1ccc(Br)cc1", "EC50": 589}
{"smiles": "O=C(CSc1ccc(Br)cc1)Nc1c(Br)cc(Br)cc1C(=O)O", "EC50": 1230}
{"smiles": "COC(=O)c1oc2ccccc2c1NC(=O)COc1ccc(Br)cc1", "EC50": 1050}
{"smiles": "COC(=O)c1ccsc1NC(=O)CSc1ccccc1", "EC50": 724}
{"smiles": "COC(=O)c1nn(CCc2ccccc2)cc1NC(=O)CCc1ccccc1", "EC50": 427}
{"smiles": "COC(=O)c1sccc1NC(=O)CCSc1ccccc1", "EC50": 501}
{"smiles": "COC(=O)c1oc2ccccc2c1NC(=O)CSc1ccc([N+](=O)[O-])cc1", "EC50": 575}
{"smiles": "COC(=O)c1sccc1NC(=O)CSc1ccc(Br)cc1", "EC50": 427}
{"smiles": "O=C(CCSc1ccccn1)Nc1cc(Cl)ccc1C1=NCCO1", "EC50": 1740}
{"smiles": "COC(=O)c1nn(CCc2ccccc2)cc1NC(=O)COc1ccc(Br)cc1", "EC50": 355}
{"smiles": "COC(=O)c1oc2cccc(Cl)c2c1NC(=O)CSc1ccc(Br)cc1", "EC50": 1150}
{"smiles": "COC(=O)c1cc(OC)c(OC)c(OC)c1NC(=O)CCSc1ccccn1", "EC50": 1070}
{"smiles": "O=C(CSc1ccc(Br)cc1)Nc1c(C(=O)O)oc2ccccc12", "EC50": 724}
{"smiles": "COC(=O)c1oc2cccc(Cl)c2c1NC(=O)CCSc1ccccn1", "EC50": 631}
{"smiles": "COC(=O)c1sc2ccccc2c1NC(=O)CSc1ccccc1", "EC50": 692}
{"smiles": "COC(=O)c1ccsc1NC(=O)CSc1ccc(Br)cc1", "EC50": 759}
{"smiles": "COc1cc(NC(=O)CSc2ccc(Br)cc2)c(C2=NCCO2)cc1OC", "EC50": 955}
{"smiles": "COC(=O)c1sccc1NC(=O)CSc1cccc(OC)c1", "EC50": 575}
{"smiles": "CN(C)C(=O)c1sccc1NC(=O)CSc1ccc(Br)cc1", "EC50": 851}
{"smiles": "COC(=O)c1cc(Br)cc(Br)c1NC(=O)C(Sc1ccc(Br)cc1)c1ccccc1", "note": "(stereo not drawn)", "EC50": 1580}
{"smiles": "Cc1csc(C(=O)O)c1NC(=O)CSc1ccc(Br)cc1", "EC50": 1120}
{"smiles": "COC(=O)c1sccc1NC(=O)CSc1ccccc1", "EC50": 794}
{"smiles": "COC(=O)c1sc2ccccc2c1NC(=O)CCSc1ccc(Br)cc1", "EC50": 724}
